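Values below derive from 48-hour exposures of cells grown in 96-well plates, with endpoints linearly interpolated between the two concentrations bracketing the appropriate inhibition level. Definition used: TGI = concentration required for complete inhibition of growth.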
Assays:
Experiment in all cases: inhibition of tumour cell growth, NCI panel, 48 h
RXF 393 renal = test system: RXF 393 renal
EKVX NSCLC = test system: EKVX NSCLC
M14 melanoma = test system: M14 melanoma
HOP-92 NSCLC = test system: HOP-92 NSCLC
KM12 colon = test system: KM12 colon
786-0 renal = test system: 786-0 renal
SF-295 CNS = test system: SF-295 CNS
HT29 colon = test system: HT29 colon
HL-60(TB) leukemia = test system: HL-60(TB) leukemia
UACC-62 melanoma = test system: UACC-62 melanoma
OVCAR-3 ovarian = test system: OVCAR-3 ovarian
HCT-15 colon = test system: HCT-15 colon
UO-31 renal = test system: UO-31 renal
HCT-116 colon = test system: HCT-116 colon
SF-539 CNS = test system: SF-539 CNS
SNB-75 CNS = test system: SNB-75 CNS
SK-MEL-28 melanoma = test system: SK-MEL-28 melanoma
SW-620 colon = test system: SW-620 colon
LOX IMVI melanoma = test system: LOX IMVI melanoma
SN12C renal = test system: SN12C renal
SF-268 CNS = test system: SF-268 CNS
NCI-H226 lung = test system: NCI-H226 lung
SK-MEL-2 melanoma = test system: SK-MEL-2 melanoma
CAKI-1 renal = test system: CAKI-1 renal
T-47D breast = test system: T-47D breast
MDA-MB-231 breast = test system: MDA-MB-231 breast
OVCAR-4 ovarian = test system: OVCAR-4 ovarian
HS 578T breast = test system: HS 578T breast
ACHN renal = test system: ACHN renal
NCI-H23 lung = test system: NCI-H23 lung
CCRF-CEM leukemia = test system: CCRF-CEM leukemia
IGROV1 ovarian = test system: IGROV1 ovarian
A549 NSCLC = test system: A549 NSCLC
OVCAR-8 ovarian = test system: OVCAR-8 ovarian
MCF7 breast = test system: MCF7 breast
HCC-2998 colon = test system: HCC-2998 colon
SK-MEL-5 melanoma = test system: SK-MEL-5 melanoma
COLO 205 colon = test system: COLO 205 colon
UACC-257 melanoma = test system: UACC-257 melanoma
DU-145 prostate = test system: DU-145 prostate
MOLT-4 leukemia = test system: MOLT-4 leukemia
SNB-19 CNS = test system: SNB-19 CNS
OVCAR-5 ovarian = test system: OVCAR-5 ovarian
NCI-H522 lung = test system: NCI-H522 lung
BT-549 breast = test system: BT-549 breast
SK-OV-3 ovarian = test system: SK-OV-3 ovarian
NCI-H460 lung = test system: NCI-H460 lung
U251 CNS = test system: U251 CNS
A498 renal = test system: A498 renal
MDA-MB-435 = test system: MDA-MB-435
MALME-3M melanoma = test system: MALME-3M melanoma
NCI/ADR-RES ovarian = test system: NCI/ADR-RES ovarian
K-562 leukemia = test system: K-562 leukemia
TK-10 renal = test system: TK-10 renal

Measured: TGI

Fc1ccc(-c2sc(-c3cccs3)cc2Cc2cccs2)cc1
> 100 µM: all assays above
